One experiment has as its system mTOR signaling pathway. Nature of the experiment: Western blot of prefrontal proteins after single administration. It counts as in vivo, mice. The following applies: 30 mg/kg. The method, then:
3) Western Blot: For Detecting Effect of Compound M2 on a Change in mPFC Protein Content • Animals: C57 BL/6J male mice (18-20 g), divided into four groups, i.e. the control group, fluoxetine group, compound M2 (30 mg/kg) group, and esketamine group. • Primary antibodies for experimental use
0.5 h/24 h after administration of C57 mice, brain tissue was sampled from the prefrontal brain area. After tissue samples were lysed and homogenized, quantification of proteins was performed using the BCA method, and changes in protein content in the prefrontal brain area 0.5 h/24 h after intraperitoneal administration of compound M2 were detected by steps of SDS-PAGE gel preparation, sample loading and electrophoresis, membrane transfer, sealing, primary antibody incubation, secondary antibody incubation, protein detection (development and fixation), etc.

The test system of experiment [1] is pyramidal neurons in prefrontal PrL brain area. Nature of the experiment: Brain slice electrophysiology, sEPSC of mPFC pyramidal neurons. The format is cell-based, mice. The note with it: 10 nM, 10 μM, 150 μM; for sEPSC distribution frequency: concentration-dependent, significant at 150 μM. The text has this: 2) Brain Slice Electrophysiological Experiment: For Detecting Effect of Compound M2 on mPFC Excitatory Synaptic Transmission • Animal: neonatal mice C57 BL/6J (20-30 days). • Instrument: vibratome (Leica), brain slice electrophysiological system (Axon). • Brain slice electrophysiological experiment method • SEPSC experiment method: Neonatal C57 mice were anesthetized and then perfused with artificial cerebrospinal fluid (ACSF). After decapitation, brain tissue was taken quickly and sliced by vibratome, with a thickness of a brain slice being 300 μm. After the brain slices were incubated at 28 °C for 1 h, whole-cell recordings of mPFC pyramidal neurons were made using a voltage clamp (−70 mV) through a brain slice electrophysiological system. The baseline recording time was 6 min, and then a drug to be tested was added through a perfusion system (the drug was dissolved using ACSF), and the recording time after adding the drug was 6-10 min. Recorded data was analyzed using Minianalysis software, and effects of the drug to be tested on sEPSC frequency and amplitude of medial prefrontal pyramidal neurons in C57 mice were compared.
All data analysis was done using spss data processing software, and data was expressed by Mean±s.e.m. One-way ANOVA was used to analyze the effect of compound M2 and the effect of compound M2 under the action of dopamine receptor antagonists on sEPSC current: and paired t test was used to analyze sEPSC experimental results. * was marked when p<0.05.
During the experiment, 10 μM Bicuculine was added to the solution to block GABA receptor, so as to record sEPSC of pyramidal neurons. The experiment investigated effects of different concentrations of compound M2 on spontaneous excitatory postsynaptic […] (sEPSC) of pyramidal neurons in prefrontal PrL brain area, as shown in FIG. 2.

Experiment [2] deals with DA reuptake in rat brain synaptosomes. The experiment in a line: 3H-DA reuptake by rat brain synaptosomes. The format is biochemical. The following applies: 3H-DA 10 nM, rat brain synaptosomes; read-out: DA inhibition rate % IC50. An excerpt: At present, it is believed that absolute or relative deficiencies of the central monoamine neurotransmitters 5-hydroxytryptamine (5-HT), norepinephrine (NA) and dopamine (DA) are closely related to depression and anxiety. This experiment was designed to evaluate, by the method of in vitro monoamine reuptake, the inhibitory effect of two samples of tested compound I-5 and compound M2 on reuptake of 5-HT, NA and DA in rat brain synaptosomes. The preparation of in vitro SD rat brain synaptosomes and isotopic tracer method were employed to investigate IC50 of inhibition of monoamine reuptake of DA, 5-HT and NA in two tested samples, in order to explore the possible mechanism of antidepressant and anxiolytic effects of compound I-5 and compound M2.
Synaptosomes were separated using methods in literature to prepare brain synaptosomes. SD rats were rapidly decapitated with a small animal decapitator. After decapitation, brains were taken out quickly and precooled in an ice-water mixture, and the pia mater and vascular tissue were removed. Brain tissue was taken out. 10 times volume (ml/g) of 10 mM Tris HCl buffer (containing 0.32 M sucrose, pH 7.4) was added, an ultrasonic cell pulverizer was used for homogenization (maintaining at a low temperature), and the brain tissue was homogenized and centrifuged for 10 min (4° C., 1,000 g). After balanced centrifugation (1500 g, 10 min) at 4° C., precipitate was discarded, then supernatant was taken, and centrifugation (20000 g) was performed again for 30 min. The supernatant was discarded and the precipitate, i.e. crude extract of synaptic corpuscles, was retained. […] The precipitate was suspended in a small amount of Kreb's buffer (NaCl 118 mM, KCl 4.7 mM, CaCl2) 2.5 mM, MgSO4 1.2 mM, KH2PO4 1.2 mM, NaHCO325 mM and Glucose 11.1 mM, pH 7.2-7.4), BCA method was used for protein quantification, and the operation steps were as described in the description. […]
The percentage inhibition of isotope ligand binding by each compound was calculated according to the following equation: […]

Experiment [3] has as its system mice. The note with it: mouse, in vivo; cited from earlier work.
Experiment [4] relates to mice. The following applies: 10 mg/kg continuously for 7 days; cited from earlier work.
The subject of experiment [5] is mice. The note with it: Patent C; cited from earlier work.

A word on the IC50: it is the concentration that gives 50% inhibition.

On to `NC(=O)/C=C/c1cc2c(c(C(F)(F)F)c1)OCO2` [Compound M2], for which, in the experiment on mTOR signaling pathway (0.5 h after administration), the “medial prefrontal p-TrkB content” value is reported as “increased”; the “medial prefrontal p-mTOR content” value is on record as “increased”; the “total content (mTOR, TrkB)” value was “remaining unchanged”. Further, the “content of medial prefrontal synaptogenesis-related protein PSD95” value in the experiment with mTOR signaling pathway (24 h after single administration) is listed as “significantly increased”. Also, in experiment [1], the sEPSC distribution amplitude entry is reported as “did not have significant effect” and the sEPSC distribution frequency entry is on record as “increased”. In experiment [1] (listed as compound M2), the sEPSC distribution frequency result is listed as “significantly enhance” and the sEPSC distribution amplitude entry is given as “does not have a significant effect”. Further, in experiment [2], the half-maximal inhibitory concentration (IC50) was found to be 37.3 ± 1.97 nM.
Turning to `CC(C)CNC(=O)/C=C/c1cc2c(c(C(F)(F)F)c1)OCO2` [Compound I-5], the “immobility time of forced swimming in mice” value in the experiment with mice [3] is on record as “significantly shorten the immobility time”. Also, the “reserpine-induced body temperature decrease and akinesia in mice, degree of eye closure” value with mice [4] was “significantly antagonizing”. The 50% inhibitory concentration (IC50) in experiment [2] was 26 ± 1.33 nM. In addition, the “effective anxiolytic dosage in mice elevated plus maze experiment” value in the experiment with mice [5] is 10 mg/kg.

The record behind these values is US20240217946A1, “ANTIDEPRESSANT AND ANXIOLYTIC SUBSTITUTED CINNAMAMIDE COMPOUND” (TASLY PHARMACEUTICAL GROUP CO., LTD., priority 2021, published 2024).
